# Experimental data reported in patent US8796330B2, “Inhibitors of histone deacetylase and prodrugs thereof” (Methylgene Inc., priority 2006, dated 2014).
# Test system: histone deacetylase in nuclear extracts from H446 cells (pooled HDACs)
# Test: Inhibition of histone deacetylase in H446 nuclear extracts ([3H]-acetylated histone substrate)
# Assay type: biochemical, human
# Conditions: not given
row,Structure (SMILES),pooled HDACs percent inhibition [% @ 20 μM]
1,"O=C(NO)c1ccc(CCS(=O)(=O)c2ccccc2)cc1 [Compound 73, N-Hydroxy-4-(2-benzenesulfonyl)-ethyl benzamide]",35

# Same assay, conditions: H446 nuclear extract
row,IC50 [µM],Structure (SMILES)
1,7,O=C(Cc1ccc(NS(=O)(=O)c2cc3ccccc3s2)cc1)NO [Compound 4]
2,70,"O=C(Cc1ccc(NS(=O)(=O)c2ccccc2[N+](=O)[O-])cc1)NO [Compound 7, 2-[4-(2-nitrobenzenesulfonylamino)-phenyl]-N-hydroxy-acetamide]"
3,15,"O=C(Cc1ccc(NS(=O)(=O)c2cc(Cl)ccc2Cl)cc1)NO [Compound 8, 2-[4-(2,5-dichlorobenzenesulfonylamino)-phenyl]-N-hydroxy-acetamide]"
4,9,"Cc1ccc(S(=O)(=O)Nc2ccc(CC(=O)NO)cc2)cc1 [Compound 9, 2-[4-(4-methylbenzenesulfonylamino)-phenyl]-N-hydroxy-acetamide]"
5,30,"O=C(Cc1ccc(NS(=O)(=O)c2cccc(C(F)(F)F)c2)cc1)NO [Compound 10, 2-[4-(3-trifluoromethylbenzenesulfonylamino)-phenyl]-N-hydroxy acetamide]"
6,0.9,O=C(NO)c1ccc(NS(=O)(=O)c2cc3ccccc3s2)cc1 [Compound 13]
7,25,"O=C(Cc1ccc(NS(=O)(=O)c2ccc(Cl)c(Cl)c2)cc1)NO [Compound 15, 2-[4-(3,4-dichlorobenzenesulfonylamino)-phenyl]-N-hydroxy-acetamide]"
8,160,"O=C(Cc1ccc(NS(=O)(=O)c2cccc3cccnc23)cc1)NO [Compound 18, 2-[4-(8-quinolinesulfonylamino)-phenyl]-N-hydroxy-acetamide]"
9,20,"O=C(Cc1ccc(NS(=O)(=O)c2ccc(Br)cc2)cc1)NO [Compound 19, 2-[4-(4-bromobenzenesulfonylamino)-phenyl]-N-hydroxy-acetamide]"
10,< 20,O=C(CCCCc1cccc(NS(=O)(=O)c2ccccc2)c1)NO [Compound 26]
11,< 20,"O=C(/C=C/C#Cc1ccc(NS(=O)(=O)c2ccccc2)cc1)NO [Compound 32, N-Hydroxy-5-[4-(benzenesulfonylamino)-phenyl]-4-yn-2-pentanamide]"
12,4,"O=C(/C=C/c1ccc(C(=O)NO)cc1)c1ccccc1 [Compound 45, N-Hydroxy-4-(3-oxo-3-phenylpropenyl)-benzamide]"
13,5,"O=C(CCc1ccc(C(=O)NO)cc1)c1ccccc1 [Compound 50, N-Hydroxy-4-(3-oxo-3-phenylpropyl)-benzamide]"
14,25,"O=C(CC(O)c1ccc(C(=O)NO)cc1)c1ccccc1 (centres unmarked) [Compound 53, N-Hydroxy-4-(3-oxo-3-phenyl-1-hydroxypropyl)-benzamide]"
15,15,"O=C(NO)c1ccc(CCCc2ccccc2)cc1 [Compound 56, N-Hydroxy-4-(3-phenylpropyl)-benzamide]"
16,4,"O=C(NO)c1ccc(CCCCc2ccccc2)cc1 [Compound 61, N-Hydroxy-4-(4-phenylbutyl)-benzamide]"

# Same assay, conditions: H446 nuclear extract; @ 20 μM
row,Structure (SMILES),pooled HDACs percent inhibition [% @ 20 μM]
1,"O=C(NO)c1cccc(CCc2ccccc2)c1 [Compound 68, N-Hydroxy-3-(2-phenylethyl)-benzamide]",3
2,"O=C(NO)c1ccc(CC[S+]([O-])c2ccccc2)cc1 (centres unmarked) [Compound 71, N-Hydroxy-4-(2-benzenesulfoxide)-ethyl benzamide]",44

# Same assay, conditions: H446 nuclear extract; @ 100 μM
row,Structure (SMILES),pooled HDACs percent inhibition
1,O=C(Cc1cccc(NS(=O)(=O)c2cc3ccccc3s2)c1)NO [Compound 14],36% @ 100 μM
2,"O=C(Cc1ccc(NS(=O)(=O)c2cccs2)cc1)NO [Compound 16, 2-[4-(2-Thiophenesulfonylamino)-phenyl]-N-hydroxy-acetamide]",38% 100 μM
3,"O=C(Cc1ccc(NS(=O)(=O)c2cccc([N+](=O)[O-])c2)cc1)NO [Compound 17, 2-[4-(3-nitrobenzenesulfonylamino)-phenyl]-N-hydroxy-acetamide]",47% 100 μM
4,"O=C(NO)c1cccc(CCCc2ccccc2)c1 [Compound 64, N-Hydroxy-3-(3-phenylpropyl)-benzamide]",12% @ 100 μM
